Data on one molecule can be found in article PMC5969508, “Stapled peptides as a new technology to investigate protein–protein interactions in human platelets” (Chemical Science, 2018).

“Also recorded” adds a separate entry of the source.

The subject of series [1] is human platelets. Nature of the series: PS exposure (annexin-V binding) by flow cytometry. In kind it is cell-based. The note with it: washed human platelets, 10 μM, 37 °C, time course up to 3 h, flow cytometry (Fig. 5A).
Description: Platelet activation markers (% positive platelets) were investigated following 1 h of peptide treatment. […] CD63 binding.
1.1 Preparation of washed platelet suspension
Human blood was collected from healthy volunteers, who had not taken medication for two weeks,
following informed consent in accordance with the Declaration of Helsinki. Blood was collected into 11 mM sodium citrate and washed platelets were prepared as follows: Platelet-rich plasma (PRP) was obtained by centrifugation (240 g, 15 min). Prostaglandin E1 (PGE1, 2 µM) was added to prevent premature platelet activation, and the plasma was centrifuged at 640 g for 15 min. […]
Treated washed platelet suspensions (1x10^7/mL) were analysed by flow cytometry using a C6 Accuri Flow Cytometer (Beckton Dickinson, UK), in the presence or absence of Annexin-V-PE (BD Biosciences, UK), anti-PAC-1 (BD Biosciences), anti-CD62 (BD Pharmingen, UK), or anti-CD-63P (BD Pharmingen). […]
PS exposure was assessed after incubation of 50 µL of washed platelet suspensions at 37 °C in 445 µL of […]
under the protection from direct light and analysed by flow cytometry.
Platelet activation markers (PAC -1, CD62P and CD63 binding) were assessed after incubation of 3 µL of […]
antibody and the peptide (1.1 μL of 1 mM stock solution in DMSO) . The suspensions were analysed by […]
Series [2] relates to human platelets. Nature of the series: Confocal microscopy of platelets incubated with fluorescently labelled peptides. In kind it is cell-based. The following applies: live washed platelets, 10 µM FITC-labelled peptide, 15 minutes incubation, confocal imaging (Fig. SI_5). How it is done: Fig. 3 A functionalised staple is required to induce peptide uptake into platelets. (A) Platelets were incubated with TAMRA labelled model peptides (10 μM final concentration) for 1 h (white), 2 h (grey) and 3 h incubation (black) and the percentage positive for TAMRA fluorescence was quantified using flow cytometry. (B) Peptides showing high uptake within the first hour were analysed during first 5 min following treatment. Changes in platelet-associated fluorescence were recorded in real time using flow cytometry. Unlabelled platelets were recorded for 30 s prior to addition of the given peptide. (C) Platelets were incubated with 10 μM of TAMRA-model peptides for 1 h prior to imaging by confocal microscopy. ^‡ […]
Peptide uptake experiments of the most permeable model peptides 5, 13–16 were repeated in the presence of platelet-rich plasma (PRP) to ensure realistic conditions (ESI, Fig. SI_2a ^†).
Figure SI_3. […]
Peptides were used to a final concentration of 10 µM. […] Images of TAMRA-labelled model peptide stained platelets were acquired after 1 h incubation1 using with excitation at 565 nm and emission was detected with a 560 -615 nm BP filter. […]
were acquired after 15 minutes incubation1 using excitation at 488 nm and emission was detected with […]

The test system of series [3] is human platelets. The following applies: PRP, 10 μM FITC-labelled peptide, 15, 30, 60 minutes, flow cytometry, average of two independent repeats (Fig. SI_2b). An excerpt:
(1 picture or pasted object on this page, not shown here)

Regarding `CC[C@H](C)[C@H](NC(C)=O)C(=O)N[C@@H](Cc1c[nH]c2ccccc12)C(=O)N[C@H](C(=O)N[C@@H](C)C(=O)N[C@@H](CCC(N)=O)C(=O)N[C@@H](CCC(=O)O)C(=O)N[C@@H](CC(C)C)C(=O)N[C@@H](CCCNC(=N)N)C(=O)N[C@H]1CCCn2cc(nn2)CCCc2cn(nn2)CCC[C@@H](C(=O)N[C@@H](Cc2ccccc2)C(=O)N[C@@H](CC(N)=O)C(=O)N[C@@H](C)C(=O)N[C@@H](Cc2ccc(O)cc2)C(=O)N[C@@H](Cc2ccc(O)cc2)C(=O)N[C@@H](C)C(=O)N[C@@H](CCCNC(=N)N)C(=O)N[C@@H](CCCNC(=N)N)C(N)=O)NC(=O)[C@H](CC(=O)O)NC(=O)CNC(=O)[C@H]([C@@H](C)CC)NC1=O)[C@@H](C)CC` [peptide 18], in the series on human platelets [1], the “PS exposure / annexin-V binding (in words)” value was “No annexin-V binding was observed”. The “localisation / platelet permeability of FITC-labelled Bim BH3 peptide” value in the series with human platelets [2] was “poor membrane permeability; also recorded: forming aggregates outside the platelet cytosol; also recorded: form fluorescent aggregates outside the platelets”. Further, the “platelet fluorescence of FITC-labelled Bim BH3 peptide in plasma” value with human platelets [3] is reported as “high platelet fluorescence in plasma”.
